# Experimental data taken from US20230331679A1, “NAPHTHALENE MONOIMIDE COMPOUNDS AND METHODS THEREOF” (JAWAHARLAL NEHRU CENTRE FOR ADVANCED SCIENTIFIC RESEARCH, priority 2020, published 2023).
# Assays:
# [1] = molecular target: T1, Aβ42 fibrillar aggregates (Homo sapiens, UniProt P05067); assay: ThT binding assay, dissolution of preformed Aβ42 fibrils; assay type: biochemical; conditions: after sixth day of incubation
# T1 construct: commercially available β-amyloid peptide (1-42), human; purchased marck (so in the source) PP69-.025 mg
# T1 sequence (P05067 672-713 limits assumed): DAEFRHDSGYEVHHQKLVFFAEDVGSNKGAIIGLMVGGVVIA
# Experimental: Monomeric form of Aβ42 peptide was prepared by dissolving 0.25 mg of commercially available β-amyloid peptide (1-42), human (cat: PP69-.025 mg), marck peptide in 250 µL of hexafluoro-2-propanol (HFIP) solvent to obtain a Aβ42 solution. This solution was incubated at room temperature for 1 hour, further to which the HFIP solvent was removed by nitrogen gas flow to obtain the monomeric Aβ42 peptide. To prepare a fibrillar sample of Aβ42 peptide, 0.025 mg of Aβ42 peptide was dissolved in […] of PBS buffer (pH = 7.4; contains 2% of DMSO or 100 mM NaOH) to obtain a monomeric Aβ42 solution and the peptide concentration in this solution was calculated through UV-Visible absorbance studies (ε = 1450 cm^-1 M^-1). The Aβ42 monomeric solution was incubated for 5 days in PBS buffer (pH = 7.4) to allow for the full phase formation of Aβ42 fibrils. The presence of Aβ42 fibrils was further confirmed by ThT assay.
# The ability of NMI compounds (TGR63, TGR64 and TGR65) to prevent Aβ42 fibrillar assembly (inhibition) and to break down the preformed fibrils (dissolution) was evaluated using thioflavin (ThT) binding assay. Aβ42 fibrils at a concentration of 10 µM and its aggregates, were used to study the effect of NMI compounds (TGR63, TGR64 and TGR65) at varying concentrations on both inhibition and dissolution assays. For the inhibition assay, all the NMI compounds (TGR63, TGR64 and TGR65) were added independently to Aβ peptide (10 µM) at 0 h of the experiment, whereas for the aggregates dissolution assay they were added to Aβ42 fibrillar aggregates grown for 2 days. Upon incubating for a predetermined period, Aβ42 inhibitor samples were analyzed using ThT by measuring the fluorescence change at 485 nm as presented in FIG. 1(b) and FIG. 1(c), wherein the error bars represent the standard deviation (SD) of the fluorescence measurement. Fluorescence values were normalized to maximal fluorescence intensity at 485 nm compared to that of the control (Aβ42 with no inhibitor). Experiments were performed at various stoichiometric ratios (Aβ42/inhibitor) of 1:1, 1:2, and 1:5 with a fixed concentration of Aβ42 at 10 µM. Each experiment was repeated three times (n = 3). […] TGR 63 recorded 80% dissolution efficiency while TGR 64 and TGR 65 recorded 75% and 78% dissolution efficiency respectively, for the stoichiometric ratio of 1:5.
# Aβ42 fibrils = molecular target: T2, Aβ42 fibrils (Homo sapiens, UniProt P05067); assay: Dot blot analysis of Aβ42 fibrils with OC antibody; assay type: biochemical
# T2 construct: commercially available β-amyloid peptide (1-42), human; purchased marck (so in the source) PP69-.025 mg
# T2 sequence (P05067 672-713 limits assumed): as above
# Experimental: The inhibition ability of TGR63 was further supported through dot blot ([…]) analysis which was used to evaluate the amount of Aβ42 fibrils. 10 µM of freshly prepared Aβ42 sample was incubated with TGR63 and alone independently for 48 h without shaking. The incubated samples were dotted on the PVDF membrane and allowed to dry. The PVDF membranes were blocked using 5% skimmed milk in PBS for 1 h at room temperature. The blots were washed (3 times) with 1% of Tween 20 containing PBS (PBST) for 10 min and incubated with OC (1:1000) primary antibody, specific to Aβ42 fibrils at 4° C. for 16 h. Then the unbound primary antibody was removed by PBST wash (3 times) and incubated with HRP conjugated anti-rabbit secondary antibody (Biorad, 1706515), which was diluted 10000 times. Further, nonspecific binding was removed with PBST wash and the blots were developed (chemiluminescent) and analyzed using BioRad ECL kit. […] Quantification of Aβ42 fibrils was done by firstly incubating 10 µM of Aβ42 peptide samples for 48 h at 37° C. The incubated samples were then spotted on a PVDF membrane and probed with OC (fibril specific, 1:1000) antibody to measure the amount of Aβ fibrils.
# [2] = MALDI mass analysis of brain lysate (BBB crossing); assay type: in vivo; conditions: WT mice, brains collected after 1 h
# Experimental: Pharmacokinetics of TGR63 in wild-type (WT) mice was performed to assess its in vivo efficacy. The lethal dose 50 (LD50) of TGR63 was determined in WT mice through intraperitoneal (IP) injection following the Organisation for Economic Cooperation and Development (OECD) guidelines. […] FIG. 7A illustrates the calculation of lethal dose 50% (LD50) of TGR63 through intraperitoneal administration and is represented as table of experimental details and the final observation was done on 14th day. FIG. 7B illustrates the mortality (%) plotted against TGR63 concentration and calculation of LD50. Twenty-five WT mice were segregated in five different groups (G1-5, N= 5 per group) and administered with varying doses of TGR63 (1.7, 5.5, 17.5 56.0 and 179.0 mg/kg body weight, respectively) through IP injection and their survival was monitored for 14 days. The serum stability and blood-brain barrier (BBB) crossing ability of TGR63 were assessed through matrix-assisted laser desorption ionization (MALDI) mass spectrometry analysis of blood and brain samples of vehicle and TGR63 treated mice. […] The partition coefficient (P), a valuable physical property was calculated to predict the BBB permeability. […] The calculated positive logP value predicts the possible BBB crossing ability for TGR63. […]
smiles,measurement,setting,value
"CN(C)c1ccc(C#Cc2ccc3c4c(cccc24)C(=O)N(CC[N+](C)(C)C)C3=O)cc1 [TGR63, 2-(6-((4-(dimethylamino)phenyl)ethynyl)-1,3-dioxo-1H-benzo[de]isoquinolin-2(3H)-yl)-N,N,N-trimethylethan-1-aminium]",dissolution efficiency,"[1]; Aβ42/inhibitor 1:1, Aβ42 10 µM",~ 35%
same,dissolution efficiency,"[1]; Aβ42/inhibitor 1:2, Aβ42 10 µM",~ 50%
same,dissolution efficiency,"[1]; Aβ42/inhibitor 1:5, Aβ42 10 µM",80%
same,Aβ42 aggregates (quantification of dot blot),"Aβ42 fibrils; L2, 10 µM TGR63, 10 µM Aβ42, 48 h at 37° C.",~ 90%
same,amount of Aβ42 fibrils decreased (blot image; Aβ42 alone 100%),"Aβ42 fibrils; L3, 50 µM TGR63, 10 µM Aβ42, 48 h",~ 50%
same,Aβ42 aggregates (quantification of dot blot),"Aβ42 fibrils; L3, 50 µM TGR63, 10 µM Aβ42, 48 h at 37° C.",~ 40%
same,BBB crossing ability (MALDI of brain lysate),[2],confirmed BBB crossing ability of TGR63
